Source: ChEMBL document CHEMBL1201862, “PubChem BioAssay data set” (2004)
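Assay format: 96-well plates, 48-hour exposure. Here, GI50 denotes the concentration required for 50% inhibition of growth.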 Calls of active or inactive are those of the source. Cut-off read from the data, not from the text of the source: active = GI50 up to about 1.1 µM and inactive = higher.

What was measured:
Assay in all cases: DTP human tumour cell line panel, 48 h
UO-31 = tested on: UO-31
NCI-H460 = tested on: NCI-H460
HL-60 = tested on: HL-60
M14 = tested on: M14
HOP-62 = tested on: HOP-62
OVCAR-8 = tested on: OVCAR-8
NCI-H226 = tested on: NCI-H226
SF-295 = tested on: SF-295
SNB-75 = tested on: SNB-75
SF-539 = tested on: SF-539
MCF7 = tested on: MCF7
BT-549 = tested on: BT-549
A549 = tested on: A549
HCT-116 = tested on: HCT-116
TK-10 = tested on: TK-10
HCT-15 = tested on: HCT-15
SR = tested on: SR
COLO 205 = tested on: COLO 205
ACHN = tested on: ACHN
OVCAR-5 = tested on: OVCAR-5
U-251 = tested on: U-251
CCRF-CEM = tested on: CCRF-CEM
NCI-H522 = tested on: NCI-H522
EKVX = tested on: EKVX
NCI-H23 = tested on: NCI-H23
786-0 = tested on: 786-0
PC-3 = tested on: PC-3
SF-268 = tested on: SF-268
SN12C = tested on: SN12C
SNB-19 = tested on: SNB-19
CAKI-1 = tested on: CAKI-1
OVCAR-4 = tested on: OVCAR-4
HOP-92 = tested on: HOP-92
SK-OV-3 = tested on: SK-OV-3
LOX IMVI = tested on: LOX IMVI
UACC-62 = tested on: UACC-62
MOLT-4 = tested on: MOLT-4
OVCAR-3 = tested on: OVCAR-3
A498 = tested on: A498
T47D = tested on: T47D
RXF 393 = tested on: RXF 393
SK-MEL-5 = tested on: SK-MEL-5
UACC-257 = tested on: UACC-257
HCC 2998 = tested on: HCC 2998
KM12 = tested on: KM12
MDA-MB-231 = tested on: MDA-MB-231
NCI/ADR-RES = tested on: NCI/ADR-RES
MDA-MB-435 = tested on: MDA-MB-435
SK-MEL-28 = tested on: SK-MEL-28
SK-MEL-2 = tested on: SK-MEL-2
DU-145 = tested on: DU-145
HT-29 = tested on: HT-29
RPMI-8226 = tested on: RPMI-8226
SW-620 = tested on: SW-620
MDA-N = tested on: MDA-N
Malme-3M = tested on: Malme-3M
Hs-578T = tested on: Hs-578T
IGROV-1 = tested on: IGROV-1
K562 = tested on: K562

## C=C(C)CNCC(=C)C.Oc1c(Cl)c(Cl)c(Cl)c(Cl)c1Cl
UO-31
  GI50: 15.7 µM (inactive)
NCI-H460
  GI50: > 100 µM (inactive)
HL-60
  GI50: 3.15 µM (inactive)
M14
  GI50: 26.7 µM (inactive)
HOP-62
  GI50: 22 µM (inactive)
OVCAR-8
  GI50: 31.9 µM (inactive)
NCI-H226
  GI50: 13.9 µM (inactive)
SF-295
  GI50: 16.5 µM (inactive)
SNB-75
  GI50: 16.6 µM (inactive)
SF-539
  GI50: 17.6 µM (inactive)
MCF7
  GI50: 26.6 µM (inactive)
BT-549
  GI50: 25.4 µM (inactive)
A549
  GI50: 27.9 µM (inactive)
HCT-116
  GI50: 16.4 µM (inactive)
TK-10
  GI50: > 100 µM (inactive)
HCT-15
  GI50: 20.9 µM
SR
  GI50: 26.6 µM (inactive)
COLO 205
  GI50: 22.7 µM (inactive)
ACHN
  GI50: 21.6 µM (inactive)
OVCAR-5
  GI50: 17.1 µM (inactive)
U-251
  GI50: 17.9 µM (inactive)
CCRF-CEM
  GI50: 26.4 µM (inactive)
NCI-H522
  GI50: 22 µM (inactive)
EKVX
  GI50: 17.9 µM (inactive)
NCI-H23
  GI50: 22.3 µM (inactive)
786-0
  GI50: 19.4 µM (inactive)
PC-3
  GI50: 22.8 µM (inactive)
SF-268
  GI50: 33.9 µM (inactive)
SN12C
  GI50: 20.2 µM (inactive)
SNB-19
  GI50: 32.1 µM (inactive)
CAKI-1
  GI50: 21.4 µM (inactive)
OVCAR-4
  GI50: 23.5 µM (inactive)
HOP-92
  GI50: 24.4 µM (inactive)
SK-OV-3
  GI50: 43.4 µM (inactive)
LOX IMVI
  GI50: 22.3 µM (inactive)
UACC-62
  GI50: 18.7 µM (inactive)
MOLT-4
  GI50: 20.1 µM (inactive)
OVCAR-3
  GI50: 11 µM (inactive)
A498
  GI50: 20.4 µM (inactive)
T47D
  GI50: 18.2 µM (inactive)
RXF 393
  GI50: 20 µM (inactive)
SK-MEL-5
  GI50: 16.4 µM (inactive)
UACC-257
  GI50: > 100 µM (inactive)
HCC 2998
  GI50: > 100 µM (inactive)
KM12
  GI50: 20.4 µM (inactive)
MDA-MB-231
  GI50: 15.5 µM (inactive)
NCI/ADR-RES
  GI50: 23.8 µM (inactive)
MDA-MB-435
  GI50: 23.7 µM (inactive)
SK-MEL-28
  GI50: 28.2 µM (inactive)
SK-MEL-2
  GI50: 17.7 µM (inactive)
DU-145
  GI50: 15.2 µM (inactive)
HT-29
  GI50: 20.1 µM (inactive)
RPMI-8226
  GI50: 20.8 µM (inactive)
SW-620
  GI50: 31.1 µM (inactive)
MDA-N
  GI50: 18.7 µM (inactive)
Malme-3M
  GI50: 17.4 µM (inactive)
Hs-578T
  GI50: 35.6 µM (inactive)
IGROV-1
  GI50: 22.1 µM (inactive)
K562
  GI50: 32.4 µM (inactive)

## CN(CCn1cnc2c1c(=O)n(C)c(=O)n2C)C1CCCCC1
UO-31
  GI50: > 100 µM (inactive)
NCI-H460
  GI50: > 100 µM (inactive)
HL-60
  GI50: > 100 µM (inactive)
M14
  GI50: > 100 µM (inactive)
HOP-62
  GI50: > 100 µM (inactive)
OVCAR-8
  GI50: > 100 µM (inactive)
NCI-H226
  GI50: > 100 µM (inactive)
SF-295
  GI50: > 100 µM (inactive)
SNB-75
  GI50: > 100 µM (inactive)
SF-539
  GI50: > 100 µM (inactive)
MCF7
  GI50: > 100 µM (inactive)
BT-549
  GI50: > 100 µM (inactive)
A549
  GI50: > 100 µM (inactive)
HCT-116
  GI50: > 100 µM (inactive)
TK-10
  GI50: > 100 µM (inactive)
HCT-15
  GI50: > 100 µM
SR
  GI50: > 100 µM (inactive)
COLO 205
  GI50: > 100 µM (inactive)
ACHN
  GI50: > 100 µM (inactive)
OVCAR-5
  GI50: > 100 µM (inactive)
U-251
  GI50: > 100 µM (inactive)
CCRF-CEM
  GI50: > 100 µM (inactive)
NCI-H522
  GI50: > 100 µM (inactive)
EKVX
  GI50: > 100 µM (inactive)
NCI-H23
  GI50: > 100 µM (inactive)
786-0
  GI50: > 100 µM (inactive)
PC-3
  GI50: > 100 µM (inactive)
SF-268
  GI50: > 100 µM (inactive)
SN12C
  GI50: > 100 µM (inactive)
SNB-19
  GI50: > 100 µM (inactive)
CAKI-1
  GI50: > 100 µM (inactive)
OVCAR-4
  GI50: > 100 µM (inactive)
HOP-92
  GI50: > 100 µM (inactive)
SK-OV-3
  GI50: > 100 µM (inactive)
LOX IMVI
  GI50: > 100 µM (inactive)
UACC-62
  GI50: > 100 µM (inactive)
MOLT-4
  GI50: > 100 µM (inactive)
OVCAR-3
  GI50: > 100 µM (inactive)
A498
  GI50: > 100 µM (inactive)
T47D
  GI50: > 100 µM (inactive)
RXF 393
  GI50: > 100 µM (inactive)
SK-MEL-5
  GI50: > 100 µM (inactive)
UACC-257
  GI50: > 100 µM (inactive)
HCC 2998
  GI50: > 100 µM (inactive)
KM12
  GI50: > 100 µM (inactive)
MDA-MB-231
  GI50: > 100 µM (inactive)
NCI/ADR-RES
  GI50: > 100 µM (inactive)
MDA-MB-435
  GI50: > 100 µM (inactive)
SK-MEL-28
  GI50: > 100 µM (inactive)
SK-MEL-2
  GI50: > 100 µM (inactive)
DU-145
  GI50: > 100 µM (inactive)
HT-29
  GI50: > 100 µM (inactive)
RPMI-8226
  GI50: > 100 µM (inactive)
SW-620
  GI50: > 100 µM (inactive)
MDA-N
  GI50: > 100 µM (inactive)
Malme-3M
  GI50: > 100 µM (inactive)
Hs-578T
  GI50: > 100 µM (inactive)
IGROV-1
  GI50: > 100 µM (inactive)
K562
  GI50: > 100 µM (inactive)
